# Patent US10968225B2, “Compounds and compositions for the treatment of cystic fibrosis” (Fondazione Istituto Italiano Di Tecnologia, priority 2017, dated 2021)
# Biological target: T1, mutant CFTR (Homo sapiens, UniProt P13569, DEL508-508)
# T1 construct: expressed in transfected cells
# Assay: Fluorescence (HS-YFP) assay for CFTR activity, corrector assay
# Type: cell-based
# Conditions: CFBE41o- and FRT cells with stable expression of mutant CFTR, read-out: activity (EC50)
# T1 sequence (P13569 with tags, fused parts or gaps DEL508-508): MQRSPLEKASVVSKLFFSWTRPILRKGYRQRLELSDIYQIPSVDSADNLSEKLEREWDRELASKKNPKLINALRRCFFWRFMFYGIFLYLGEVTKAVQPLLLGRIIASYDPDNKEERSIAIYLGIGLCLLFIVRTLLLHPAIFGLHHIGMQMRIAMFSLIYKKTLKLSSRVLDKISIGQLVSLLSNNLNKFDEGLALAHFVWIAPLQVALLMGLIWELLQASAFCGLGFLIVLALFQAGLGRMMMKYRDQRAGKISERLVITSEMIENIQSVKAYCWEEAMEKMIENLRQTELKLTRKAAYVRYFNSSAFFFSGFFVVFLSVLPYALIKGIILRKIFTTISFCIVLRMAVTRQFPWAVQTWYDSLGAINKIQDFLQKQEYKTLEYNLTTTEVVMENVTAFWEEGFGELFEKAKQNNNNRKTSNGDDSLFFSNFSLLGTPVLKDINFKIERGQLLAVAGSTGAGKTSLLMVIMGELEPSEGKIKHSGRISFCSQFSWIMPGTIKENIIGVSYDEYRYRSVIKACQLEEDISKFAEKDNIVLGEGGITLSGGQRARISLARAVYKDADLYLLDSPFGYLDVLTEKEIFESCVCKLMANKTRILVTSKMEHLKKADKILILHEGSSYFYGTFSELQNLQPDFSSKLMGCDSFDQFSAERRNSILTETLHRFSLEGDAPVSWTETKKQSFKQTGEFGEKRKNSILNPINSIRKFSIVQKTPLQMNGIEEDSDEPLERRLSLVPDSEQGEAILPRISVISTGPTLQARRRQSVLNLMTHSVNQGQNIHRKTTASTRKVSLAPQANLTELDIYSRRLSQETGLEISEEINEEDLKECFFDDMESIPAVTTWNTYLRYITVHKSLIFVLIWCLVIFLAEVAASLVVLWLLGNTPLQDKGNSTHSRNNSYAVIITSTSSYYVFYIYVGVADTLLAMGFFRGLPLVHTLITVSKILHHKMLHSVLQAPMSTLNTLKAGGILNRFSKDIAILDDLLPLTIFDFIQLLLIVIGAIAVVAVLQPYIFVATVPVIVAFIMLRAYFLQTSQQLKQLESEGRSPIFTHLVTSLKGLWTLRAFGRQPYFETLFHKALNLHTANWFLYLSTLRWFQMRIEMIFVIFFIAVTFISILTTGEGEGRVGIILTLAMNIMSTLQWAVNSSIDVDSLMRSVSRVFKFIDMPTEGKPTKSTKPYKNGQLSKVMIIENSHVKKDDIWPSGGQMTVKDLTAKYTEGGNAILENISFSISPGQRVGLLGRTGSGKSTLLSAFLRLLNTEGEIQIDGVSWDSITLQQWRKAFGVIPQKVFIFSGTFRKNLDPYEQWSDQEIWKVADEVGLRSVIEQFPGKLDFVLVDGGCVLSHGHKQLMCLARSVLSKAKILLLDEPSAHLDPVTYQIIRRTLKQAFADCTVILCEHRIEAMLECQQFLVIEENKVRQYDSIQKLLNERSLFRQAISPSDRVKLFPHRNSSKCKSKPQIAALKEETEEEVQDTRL
row,SMILES,EC50
1,"Cc1nc2ccc(N(C)C(=O)c3cccc(-n4nc(C(F)(F)F)c5c4CCN(C)C5)c3)cc2o1 [Compound 040, N-Methyl-N-(2-methyl-1,3-benzoxazol-6-yl)-3-[5-methyl-3-(trifluoromethyl)-6,7-dihydro-4H-pyrazolo[4,3-c]pyridin-1-yl]benzamide]",< 1000 nM
2,"CN(C(=O)c1cccc(-n2nc(C(F)(F)F)c3c2C(Oc2cncc(C(=O)O)c2)CCC3)c1)c1ccc2c(c1)OC(F)(F)O2 (single isomer, unassigned) [Compound 272, (R) or (S)-5-[[1-[3-[(2,2-Difluoro-1,3-benzodioxol-5-yl)-methyl-carbamoyl]phenyl]-3-(trifluoromethyl)-4,5,6,7-tetrahydroindazol-7-yl]oxy]pyridine-3-carboxylic acid]",1000 to 2000 nM
3,"CN(C(=O)c1cccc(-n2nc(C(F)(F)F)c3c2C(Oc2ncc(C(=O)O)cn2)COC3)c1)c1ccc2c(c1)OCC2 (single isomer, unassigned) [Compound 298, (R) or (S)-2-[[1-[3-[2,3-dihydrobenzofuran-6-yl(methyl)carbamoyl]phenyl]-3-(trifluoromethyl)-6,7-dihydro-4H-pyrano[4,3-c]pyrazol-7-yl]oxy]pyrimidine-5-carboxylic acid]",< 1000 nM
4,"CN(C(=O)c1cccc(-n2nc(C(F)(F)F)c3c2C(Oc2ncc(C(=O)O)cn2)COC3)c1)c1ccc2c(c1)OCC2 (single isomer, unassigned) [Compound 299, (S) or (R)-2-[[1-[3-[2,3-dihydrobenzofuran-6-yl(methyl)carbamoyl]phenyl]-3-(trifluoromethyl)-6,7-dihydro-4H-pyrano[4,3-c]pyrazol-7-yl]oxy]pyrimidine-5-carboxylic acid]",1000 to 2000 nM
5,"CN(C(=O)c1cccc(-n2nc(C(F)(F)F)c3c2C(Oc2cncc(C(=O)O)c2)CCC3)c1)c1ccc2c(c1)OC(F)(F)O2 (stereo not shown) [Compound 178, 5-[[1-[3-[(2,2-Difluoro-1,3-benzodioxol-5-yl)-methyl-carbamoyl]phenyl]-3-(trifluoromethyl)-4,5,6,7-tetrahydroindazol-7-yl]oxy]pyridine-3-carboxylic acid]",< 1000 nM
6,"CN(C(=O)c1cccc(-n2nc(C(F)(F)F)c3c2C(Oc2ccc(C(=O)O)cn2)CCC3)c1)c1ccc2c(c1)OC(F)(F)O2 (single isomer, unassigned) [Compound 192, (S) or (R)-6-[[1-[3-[(2,2-Difluoro-1,3-benzodioxol-5-yl)-methyl-carbamoyl]phenyl]-3-(trifluoromethyl)-4,5,6,7-tetrahydroindazol-7-yl]oxy]pyridine-3-carboxylic acid]",< 1000 nM
7,"Cc1noc(C)c1S(=O)(=O)N1CCc2c(c(C(F)(F)F)nn2-c2cccc(C(=O)N(C)c3ccc4c(c3)OC(F)(F)O4)c2)C1 [Compound 096, N-(2,2-Difluoro-1,3-benzodioxol-5-yl)-3-[5-(3,5-dimethylisoxazol-4-yl)sulfonyl-3-(trifluoromethyl)-6,7-dihydro-4H-pyrazolo[4,3-c]pyridin-1-yl]-N-methyl-benzamide]",< 1000 nM
8,"Cc1nc2cc(F)c(N(C)C(=O)c3cccc(-n4nc(C(F)(F)F)c5c4CCN(S(=O)(=O)c4c(C)noc4C)C5)c3)cc2o1 [Compound 138, 3-[5-(3,5-Dimethylisoxazol-4-yl)sulfonyl-3-(trifluoromethyl)-6,7-dihydro-4H-pyrazolo[4,3-c]pyridin-1-yl]-N-(5-fluoro-2-methyl-1,3-benzoxazol-6-yl)-N-methyl-benzamide]",< 1000 nM
9,"Cc1nn(-c2cccc(C(=O)N(C)c3ccc4c(c3)OCO4)c2)c2c1CCCC2 [Compound 132, N-(1,3-Benzodioxol-5-yl)-N-methyl-3-(3-methyl-4,5,6,7-tetrahydroindazol-1-yl)benzamide]",1000 to 2000 nM
10,"Cc1cc(OC2CCCc3c(C(F)(F)F)nn(-c4cccc(C(=O)N(C)c5ccc6c(c5)OC(F)(F)O6)c4)c32)ccc1C(=O)O (stereo not shown) [Compound 176, 4-[[1-[3-[(2,2-Difluoro-1,3-benzodioxol-5-yl)-methyl-carbamoyl]phenyl]-3-(trifluoromethyl)-4,5,6,7-tetrahydroindazol-7-yl]oxy]-2-methyl-benzoic acid]",< 1000 nM
11,"CN(C(=O)c1cccc(-n2nc(C(F)(F)F)c3c2C(Oc2ccc(C(=O)O)cc2)CCC3)c1)c1cnc(OC(F)F)nc1 (racemic) [Compound 219, 4-[[1-[3-[[2-(Difluoromethoxy)pyrimidin-5-yl]-methyl-carbamoyl]phenyl]-3-(trifluoromethyl)-4,5,6,7-tetrahydroindazol-7-yl]oxy]benzoic acid]",1000 to 2000 nM
12,"CNC(=O)N1CCc2c(c(C(F)(F)F)nn2-c2cccc(C(=O)N(C)c3ccc4c(c3)OCO4)c2)C1 [Compound 056, 1-[3-[1,3-Benzodioxol-5-yl(methyl)carbamoyl]phenyl]-N-methyl-3-(trifluoromethyl)-6,7-dihydro-4H-pyrazolo[4,3-c] pyridine-5-carboxamide]",< 1000 nM
13,"CN(C(=O)c1cccc(-n2nc(C(F)(F)F)c3c2C(Oc2ccc(C(=O)O)cc2)CCC3)c1)c1cnc2c(c1)OCC2 (racemic) [Compound 259, (rac)-4-[[1-[3-[2,3-Dihydrofuro[3,2-b]pyridin-6-yl(methyl)carbamoyl]phenyl]-3-(trifluoromethyl)-4,5,6,7-tetrahydroindazol-7-yl]oxy]benzoic acid]",< 1000 nM
14,"COc1ncc(N(C)C(=O)c2cccc(-n3nc(C(F)(F)F)c4c3CCN(C(=O)C(C)(C)C)C4)c2)cn1 [Compound 142, 3-[5-(2,2-Dimethylpropanoyl)-3-(trifluoromethyl)-6,7-dihydro-4H-pyrazolo[4,3-c]pyridin-1-yl]-N-(2-methoxypyrimidin-5-yl)-N-methyl-benzamide]",> 2000 nM
15,"CN(C(=O)c1cccc(-n2nc(C(F)(F)F)c3c2C(Oc2ccc(C(=O)O)cn2)COC3)c1)c1ccc2c(c1)OC(F)(F)O2 (racemic) [Compound 213, 6-[[1-[3-[(2,2-Difluoro-1,3-benzodioxol-5-yl)-methyl-carbamoyl]phenyl]-3-(trifluoromethyl)-6,7-dihydro-4H-pyrano[4,3-c]pyrazol-7-yl]oxy]pyridine-3-carboxylic acid]",< 1000 nM
16,"CN(C(=O)c1cccc(-n2nc(C(F)(F)F)c3c2C(Oc2ccc(C(=O)O)cc2)CCC3)c1)c1ccc2c(c1)OCC2 (single isomer, unassigned) [Compound 279, (S) or (R)-4-[[1-[3-[2,3-dihydrobenzofuran-6-yl(methyl)carbamoyl]phenyl]-3-(trifluoromethyl)-4,5,6,7-tetrahydroindazol-7-yl]oxy]benzoic acid]",< 1000 nM
17,"CN(C(=O)c1cccc(-n2nc(C(F)(F)F)c3c2C(Oc2ccc(C(=O)O)cc2)CCC3)c1)c1cncc(OC(F)F)c1 (racemic) [Compound 267, 4-[[1-[3-[[5-(Difluoromethoxy)-3-pyridyl]-methyl-carbamoyl]phenyl]-3-(trifluoromethyl)-4,5,6,7-tetrahydroindazol-7-yl]oxy]benzoic acid]",1000 to 2000 nM
18,"Cc1nc2ncc(N(C)C(=O)c3cccc(-n4nc(C(F)(F)F)c5c4C(Oc4ccc(C(=O)O)cc4)COC5)c3)cc2o1 (racemic) [Compound 269, 4-[[1-[3-[Methyl-(2-methyloxazolo[4,5-b]pyridin-6-yl)carbamoyl]phenyl]-3-(trifluoromethyl)-6,7-dihydro-4H-pyrano[4,3-c]pyrazol-7-yl]oxy]benzoic acid]",< 1000 nM
19,"Cc1noc(C)c1S(=O)(=O)N1CCc2c(c(C(F)(F)F)nn2-c2cccc(C(=O)N(C)c3ccc4c(c3)OCO4)c2)C1 [Compound 067, N-(1,3-benzodioxol-5-yl)-3-[5-(3,5-dimethylisoxazol-4-yl)sulfonyl-3-(trifluoromethyl)-6,7-dihydro-4H-pyrazolo[4,3-c]pyridin-1-yl]-N-methyl-benzamide]",< 1000 nM
20,"COc1ccc(NC(=O)c2cccc(-n3nc(C(F)(F)F)c4c3CCN(C(=O)C(C)(C)C)C4)c2)cn1 [Compound 080, 3-[5-(2,2-Dimethylpropanoyl)-3-(trifluoromethyl)-6,7-dihydro-4Hpyrazolo[4,3-c]pyridin-1-yl]-N-(6-methoxy-3-pyridyl)benzamide]",> 2000 nM
21,"CN(C(=O)c1cccc(-n2nc(C(F)(F)F)c3c2C[C@H]2CC[C@@H]3N2)c1)c1ccc2c(c1)OCO2 (single isomer, unassigned) [Compound 048, (4R,7S)- or (4S,7R)—N-(Benzo[d][1,3]dioxol-5-yl)-N-methyl-3-(3-(trifluoromethyl)-5,6,7,8-tetrahydro-4,7-epiminocyclohepta [c]pyrazol-1(4H)-yl)benzamide]",< 1000 nM
22,"CN(C(=O)c1cccc(-n2nc(C(F)(F)F)c3c2C(Oc2cncc(C(=O)O)c2)CCC3)c1)c1ccc2c(c1)OC(F)(F)O2 (single isomer, unassigned) [Compound 271, (S) or (R)-5-[[1-[3-[(2,2-Difluoro-1,3-benzodioxol-5-yl)-methyl-carbamoyl]phenyl]-3-(trifluoromethyl)-4,5,6,7-tetrahydroindazol-7-yl]oxy]pyridine-3-carboxylic acid]",< 1000 nM
23,"CN(C(=O)c1cccc(-n2nc(C(F)(F)F)c3c2CCN(Cc2ccc(C(=O)O)cc2)C3)c1)c1ccc2c(c1)OCO2 [Compound 026, 4-[[1-[3-[1,3-Benzodioxol-5-yl(methyl)carbamoyl]phenyl]-3-(trifluoromethyl)-6,7-dihydro-4H-pyrazolo[4,3-c]pyridin-5-yl]methyl]benzoic acid]",< 1000 nM
24,"CN(C(=O)c1cccc(-n2nc(C(F)(F)F)c3c2C(Oc2ccc(C(=O)O)cc2)CCC3)c1)c1cnc2c(c1)COC2 (racemic) [Compound 260, (rac)-4-[[1-[3-[5,7-Dihydrofuro[3,4-b]pyridin-3-yl(methyl)carbamoyl]phenyl]-3-(trifluoromethyl)-4,5,6,7-tetrahydroindazol-7-yl]oxy]benzoic acid]",1000 to 2000 nM
25,"Cc1nc2cc(F)c(N(C)C(=O)c3cccc(-n4nc(C(F)(F)F)c5c4CCN(C)C5)c3)cc2o1 [Compound 046, N-(5-Fluoro-2-methyl-1,3-benzoxazol-6-yl)-N-methyl-3-[5-methyl-3-(trifluoromethyl)-6,7-dihydro-4H-pyrazolo[4,3-c]pyridin-1-yl]benzamide]",< 1000 nM
